Experimental data: paper PMC10200060, “Inhibition of DAMP actions in the tumoral microenvironment using lactoferrin-glycyrrhizin conjugate for glioblastoma therapy” (Biomaterials Research, 2023)

Test system: HUVEC
Assay: HUVEC co-cultured with U87MG: CCK-8 at basal chamber
Format: cell-based, human
Conditions: HUVEC/U87MG Transwell co-culture, 100 μM GL equivalent, 24 h
Method: To evaluate the inhibitory effect of Lf-GL on neovascularization in the tumor microenvironment in vitro, U87MG cells were seeded in the Transwell® insert chambers that were 6.5 mm in diameter and had 0.4 μm pore sizes (seeding density: 2.5 × 10^4 cells per well, Corning). HUVECs were seeded in the Transwell basal chamber (seeding density: 5.0 × 10^4 cells per well). GL, Lf, or Lf-GL (100 × 10^–6 M of GL equivalent concentration) were added to the insert chamber, and cells were incubated for 24 h. CCK-8 assay and HMGB1 ELISA were conducted at the basal chamber.

CC1(C)[C@@H](O[C@H]2O[C@H](C(=O)O)[C@@H](O)[C@H](O)[C@H]2O[C@@H]2O[C@H](C(=O)O)[C@@H](O)[C@H](O)[C@H]2O)CC[C@]2(C)[C@H]3C(=O)C=C4[C@@H]5C[C@@](C)(C(=O)O)CC[C@]5(C)CC[C@@]4(C)[C@]3(C)CC[C@@H]12 [GL, Glycyrrhizin]
Reduction of endothelial cell proliferation: 10.7 ± 2.9%
